Data as given in PubChem BioAssay AID2305 (GlaxoSmithKline (GSK), 2010).

The compounds below were run on P. falciparum 3D7 growth, pLDH absorbance (assay: blood-stage malaria parasite growth potency – strain 3D7, dose response (AID 2305)).

Row | Compound | IC50 [nM]
1 | COc1ccccc1N1CCN(CCCCNC(=O)c2ccc(NC(=O)c3cc(Cl)cc(Cl)c3)cc2)CC1 | 460
2 | CCOc1ccc(C(=O)Nc2cc(Br)c3c(c2)CNCC3)cc1C(F)(F)F | 940
3 | COc1ccccc1N1CCN(c2cccc3c2nc(-c2cncc(C#N)c2)n3CCNCc2ccccc2)CC1 | 710
4 | CN1CCN(CCCN(Cc2csc(-c3ccc(CNCc4ccccc4)cc3)n2)C(=O)Nc2cccc(Cl)c2)CC1 | 790
5 | CCCCNC(=O)[C@H](CC1CCCCC1)NC(=O)c1ccc(O)c(-c2ccc(Cl)c(Cl)c2)c1 | 160
6 | O=C(Nc1ccccc1)N(Cc1ccccc1-c1cccc(CNCCc2ccccc2)c1)C1CCN(Cc2ccccc2)CC1 | 180
7 | c1csc(-c2nc(NCC3CCCO3)ncc2-c2ccsc2)n1 (configuration not stated) | 490
8 | CCCCN1CCCN(Cc2cccc(NC(=O)c3ccc(-c4ccccc4)cc3)c2)CC1 | 1030
9 | CCN(CC)CCOc1ccc(Nc2ncc3cc(-c4c(Cl)cccc4Cl)c(=O)n(C)c3n2)cc1 | 1180
10 | COc1cc2nc(N3CCC(CNC(=O)c4ccc(-c5ccc(C(=O)N(C)C)cc5)c(OCCO)c4)CC3)nc(N)c2cc1OC | 730
11 | Oc1cc(Nc2ccnc3ccc(I)cc23)c(F)cc1Cl | 1230
12 | CCOc1ccc2c(NN=Cc3ccc(F)cc3)cc(C)nc2c1 | 580
13 | COc1ccc(C2CCN(CCCCNC(=O)c3ccc(NC(=O)c4ccc(Cl)cc4)cc3)CC2)c(OC)c1 | 570
14 | Cc1cc(C(=O)NC2CCN(Cc3ccccc3)CC2)ccc1-c1nc2ccc(C(F)(F)F)cc2[nH]1 | 890
15 | CN1CCCC(CN2CCN(Cc3ccc(-c4cccc(-c5nc6ccc(F)cc6[nH]5)c4)cc3)CC2)C1 (configuration not stated) | 180
16 | COC(=O)c1ccc(OCC(C)NCC(O)c2cccc(C(F)(F)F)c2)cc1 (configuration not stated) | 840
17 | Cc1ccc(CC(C)(C)NCC(O)c2cccc(C(F)(F)F)c2)cc1 (configuration not stated) | 840
18 | Cc1cccc2[nH]c(-c3cccc(-c4ccc(NC(=O)Nc5ccc(Cl)cc5)cc4)c3)nc12 | 200
19 | Cc1cccc(NC(=O)c2ccc(C(=O)NC3CCN(CC4CCCCC4)C3)cc2)c1 (configuration not stated) | 920
20 | Cc1ccc2c(OCCN3CCC(Cc4ccc5c(c4)NC(=O)CO5)CC3)cc(F)cc2n1 | 750
21 | CCN1CCC(N(Cc2ccc(-c3ccc(C(F)(F)F)cc3)cc2)C(=O)Cn2c(CCc3cccc(F)c3F)cc(=O)c3ccccc32)CC1 | 830
22 | O=c1cc(NCCCNCc2ccc(Cl)c(Cl)c2)[nH]c2ccc(C(F)(F)F)cc12 | 520
23 | C=CCC(C)n1ncc2c3c(N)nc(N)nc3ccc21 (configuration not stated) | 50
24 | Nc1cc(C=Cc2ccc([N+](=O)[O-])o2)nc2ccccc12 | 370
25 | CC(=O)Nc1cccc(C(=O)Nc2cccc(-c3ccc(-c4nc5ccc(C(F)(F)F)cc5[nH]4)s3)c2)c1 | 650

Row | Compound | IC50 [nM]
26 | Cc1cccc2[nH]c(-c3ccc(-c4cccc(CNCCNC(=O)c5ccnn5C)c4)cc3)nc12 | 400
27 | COc1ccc(-c2ccc(CNC(=O)c3ccc(C#N)cc3)c(F)c2)cc1CN1CCCN(C)CC1 | 1140
28 | CC(C)(CN)c1cc(-c2ccc(Cl)c(O)c2)c(-c2ccncc2)o1 | 1140
29 | CCN(CC)Cc1cc(NC(=O)c2ccccc2O)ccc1Oc1ccc(Cl)cc1 | 830
30 | CC(C)(C)c1ccc(NC(=O)c2ccc(CN3CCCN(CC4CCCCC4)CC3)cc2)cc1 | 540
31 | COc1ccc(NC(=O)[C@H](Cc2ccccc2)Nc2cc(C)nc(NCCOc3ccccc3)n2)cc1 | 1070
32 | CC[C@H]1CN2CC[C@H]1C[C@H]2[C@H](O)c1ccnc2ccc(OC)cc12 | 150
33 | CC(C)c1cccc(OCC2CCN(c3ccc(C(=O)Nc4ccccc4)cn3)CC2)c1 | 700
34 | COc1ccc(-c2ccc(NC(=O)c3ccccc3)cc2)cc1CN1CCCN(C)CC1 | 910
35 | N#Cc1cccc(C(=O)Nc2ccc(-c3cccc(CN4CCC(O)CC4)c3)cc2)c1 | 1000
36 | O=S(=O)(NCCN1CCCC1)c1ccc(-c2ccc(CNC3Cc4ccccc4C3)cc2)cc1 | 660
37 | Cc1ccccc1C1CCN(C2CCC(NC(=O)c3cncc(-c4ccccc4)c3)CC2)CC1 (configuration not stated) | 930
38 | O=S(=O)(c1cc(Cl)sc1Cl)N(CCC(O)(C(F)(F)F)C(F)(F)F)Cc1cccc(O)c1 | 740
39 | CC(C)(C)Cn1cc(-c2ccc(C(=O)NCCc3ccc(S(C)(=O)=O)cc3)cc2)c(N)n1 (tested in a mixture with another compound) | 650
40 | Clc1ccc(C=NNc2ccnc3ccccc23)cc1 | 720
41 | Cc1ccc(-c2nc(NC(=O)Nc3ccc(C(F)(F)F)cc3)sc2C)cc1Cl | 660
42 | CCCc1cc(OC)c(CC2c3cc(O)c(Cl)cc3CCN2C)cc1OC (configuration not stated) | 570
43 | Cc1cccc2[nH]c(-c3ccc(-c4ccc(C(=O)NCCN5CCCC5)cc4)cc3)nc12 | 520
44 | O=S(=O)(NCCN1CCCC1)c1cccc(-c2ccc(CNC3Cc4ccccc4C3)cc2)c1 | 660
45 | Cn1ccnc1Sc1ncccc1[N+](=O)[O-] | 970
46 | CC1(C)C(N(O)C(=O)Nc2ccc(Cl)c(Cl)c2)N(c2ccc(Cl)c(Cl)c2)C(=O)N1CCc1ccccc1 (configuration not stated) | 820
47 | Cc1cc(NC(=O)c2ccsc2)ccc1OC1CCN(Cc2ccc(F)cc2)CC1 | 1220
48 | O=C(/C=C/c1ccc(Cl)c(Cl)c1)N1CCC(CN2CCC(c3c[nH]c4cc5c(cc34)OCO5)CC2)CC1 | 680
49 | Cc1[nH]c2ccc(NS(C)(=O)=O)cc2c1C1CCN(CC2CCN(C(=O)/C=C/c3ccc(Cl)c(Cl)c3)CC2)CC1 | 680
50 | O=C1CSc2ccc(CNC3CCN(CCc4c(F)cnc5ccc(F)cc45)CC3)nc2N1 | 520

Row | Compound | IC50 [nM]
51 | Fc1cccc(COc2ccc(Nc3ncnc4sc(C#Cc5ncc[nH]5)cc34)cc2Cl)c1 | 130
52 | Cc1nnsc1C(=O)Nc1cccc(-c2ccc(-c3nc4ccc(F)cc4[nH]3)cc2)c1 | 100
53 | CCCCCCC(C)c1cc(O)c2c(c1)OC(=O)CC2(CC)c1ccccn1 (configuration not stated) | 330
54 | CC[C@H]1CN2CC[C@@H]1C[C@H]2[C@H](O)c1cc(-c2ccc(F)cc2)nc2ccc(O)cc12 | 140
55 | Cc1ccc2nc(-c3ccc(C=CC(=O)NC4CCN(Cc5ccccc5)CC4)cc3)[nH]c2c1 | 680
56 | Cc1[nH]c(C)c(-c2ccc(Oc3ccc(OC(F)(F)F)cc3)cc2)c(=O)c1I | 130
57 | CN=C(N)c1ccc(NC(=O)c2ccc(C(=O)Nc3ccc(C(N)=NC)cc3)cc2)cc1 | 50
58 | CN1CCN(CCCN(Cc2ccc(-c3cccc(CNCc4ccc5c(c4)OCO5)c3)cc2)C(=O)Nc2ccccc2)CC1 | 180
59 | CCNc1cc(C(=O)N[C@@H](Cc2ccco2)[C@H](O)CNC2CCCCC2)cc(N2CCCCS2(=O)=O)c1 | 1010
60 | Nc1ncnc2c1ncn2C(CO)Cc1ccc(O)cc1 (configuration not stated) | 1030
61 | O=S(=O)(NCCN1CCCC1)c1ccc(-c2ccc(CNCc3ccc(F)cc3)cc2)cc1F | 1280
62 | CNC(=O)c1ccc2[nH]cc(C3CCN(CC4CCN(C(=O)/C=C/c5ccc(Cl)c(Cl)c5)CC4)CC3)c2c1 | 1520
63 | Cc1ccc(CNc2cc(C(F)(F)F)nc(-c3ccc(S(C)(=O)=O)cc3)n2)cc1 | 500
64 | Cc1nnc2c(N(C(=O)NCCc3ccccc3)C(=O)NCCc3ccccc3)cc3cc(Cl)ccc3n12 | 950
65 | COc1cc2ccccc2cc1CNCCCCCCNCc1cc2ccccc2cc1OC | 720
66 | CN(C)CCNc1cc(-c2cccnc2)nc(-c2ccncc2)n1 | 600
67 | Cc1cccc(C(=O)N2CCN(Cc3cccc(NC(=O)c4cccs4)c3)CC2)c1 | 220
68 | Cc1ccc2c(Cl)c(C(=O)N3CCCc4ccccc43)sc2c1 | 1510
69 | N#Cc1ccc2c(c1)CN(C1CCC(NC(=O)C3=Cc4cc(Cl)ccc4OC3)CC1)CCC2 (configuration not stated) | 1330
70 | Clc1ccc2c(NCCc3ccccc3)ccnc2c1 | 490
71 | O=C(Nc1ccc(Cl)c(Cl)c1)Nc1ccc2nccc(N3CCN(Cc4ccccc4)CC3)c2c1 | 160
72 | CCCCCN1CCCN(Cc2cccc(NC(=O)c3ccc(-c4ccccc4)cc3)c2)CC1 | 700
73 | CC(=O)Nc1ccc2[nH]cc(C3CCN(CC4CCC(NC(=O)/C=C/c5ccccc5Cl)CC4)CC3)c2n1 (configuration not stated) | 360
74 | COc1ccc(O)c(C(=O)NCCc2ccc(OC)c(-c3ccc(C(C)(C)C)cc3)c2)c1 | 1030
75 | NC(=O)c1cccc(CNCc2ccc(-c3cccc(-c4nc5ccccc5[nH]4)c3)cc2)c1 | 590

Row | Compound | IC50 [nM]
76 | CC(C)CC(NC(=O)c1cccc(OCCN2CCOCC2)c1)C(=O)NC(/C=N/NC(=O)c1ccccc1)CCc1ccccc1 (configuration not stated) | 250
77 | O=c1cc(NC[C@H]2CCC[C@@H]2NC2CCCc3c2[nH]c2ccccc32)[nH]c2ccccc12 (some centres not stated) | 790
78 | CN1CCC(O)(c2ccc(Br)cc2)C(C(O)c2ccc(Br)cc2)C1 (configuration not stated) | 730
79 | O=C(NC1CC1)c1cnc(N2CCC(OCc3ccccc3)CC2)c(Cl)c1 | 1400
80 | Cc1ccccc1C1CCN(c2ccc(C(=O)NC3CC3)cn2)CC1 | 850
81 | COC(=O)c1ccc(C[C@@H](C)NC[C@H](O)c2cccc(OCc3ccccc3)c2)cc1 | 1160
82 | O=C(NCC(CCN1CCC(c2c[nH]c3ccccc23)CC1)c1ccccc1)Nc1ccc(Cl)c(Cl)c1 (configuration not stated) | 830
83 | O=C(/C=C/c1ccc(Cl)c(Cl)c1)NCCCCCN1CCCN(C(=S)Nc2cccc(Cl)c2)CC1 | 1050
84 | Cc1nc(-c2ccc(-c3ccc(C(=O)Nc4ccc(I)c(OCCN5CCCC5)c4)cc3)c(C)c2)no1 | 960
85 | Nc1nc(N)c2c(CCc3ccc(Cl)c(Cl)c3)cccc2n1 | 670
86 | COCCCNc1sc(S(=O)(=O)c2ccccc2)nc1S(=O)(=O)c1ccc(Cl)cc1 | 880
87 | COc1c(C2CCN(CCCCNC(=O)c3ccc(C)c(-c4ccc(C(F)(F)F)cc4)c3)CC2)ccc2c1CCCC2 | 880
88 | COc1ccc2[nH]cc(C3=CCN(C[C@H]4C[C@@H]4C(=O)c4ccccc4)CC3)c2n1 | 270
89 | CN1CCCN(Cc2ccc(-c3cccc(NC(=O)c4cccc(C#N)c4)c3)cc2)CC1 | 650
90 | CCCc1ccc(Nc2nc(C)cc(N(CC)CCCN3CCCCC3)n2)cc1 | 540
91 | Cc1cc(Nc2ccncc2)n2nc(C)c(-c3ccc(Cl)cc3)c2n1 | 160
92 | COc1c(O)cc2oc(-c3ccc(O)cc3)cc(=O)c2c1O | 770
93 | CCN(CC)CCCC(C)Nc1c2ccc(Cl)cc2nc2ccc(OC)cc12 (configuration not stated) | 40
94 | Cc1nc2nc(N)nc(N)c2c(C)c1Cc1ccc(C(F)(F)F)cc1 | 750
95 | COc1ccc(-c2cnc3[nH]cc(-c4ccc(CCC(=O)O)cc4)c3c2)cn1 | 770
96 | CCCCCN1CCCC1CNS(=O)(=O)c1cccc(C(=O)Nc2cccc(C#N)c2)c1 (configuration not stated) | 980
97 | O=c1[nH]ccc2nc(N[C@@H]3CCCNC3)nc(Nc3ccc(S(=O)(=O)N4CCOCC4)cc3)c12 | 740
